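Five compound concentrations were applied to cells in 96-well plates for 48 hours; endpoints were derived by simple linear interpolation of the resulting dose-response curve. GI50 is the concentration that inhibits growth by half. Definition used: TGI = concentration required for complete inhibition of growth.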
Columns and labels:
Assay in all cases: NCI tumour cell line growth inhibition, 48 h
[1] = test system: CCRF-CEM leukemia
[2] = test system: KM12 colon
[3] = test system: HCT-116 colon
[4] = test system: OVCAR-8 ovarian
[5] = test system: OVCAR-3 ovarian
[6] = test system: MOLT-4 leukemia
[7] = test system: NCI-H23 lung
[8] = test system: RXF 393 renal
[9] = test system: DU-145 prostate
[10] = test system: UACC-257 melanoma
[11] = test system: A498 renal
[12] = test system: SR leukemia

Q: Which TGI [1] does the source give for `Cc1ccc2c3c1O[C@H]1c4nc5ccccc5cc4C[C@@]4(O)[C@@H](C2)N(CC2CC2)CC[C@]314` here?
A: Its TGI is 22.3 µM.

Q: What about the TGI [2] of the same compound?
A: The TGI was 35.6 µM.

Q: What about the TGI [3] of the same compound?
A: Its TGI is 17.2 µM.

Q: What about the TGI [4] of the same compound?
A: Its TGI is 22.6 µM.

Q: And the TGI [5]?
A: The TGI was 25.3 µM.

Q: And the TGI [6]?
A: Its TGI is 15.5 µM.

Q: What about the TGI [7] of the same compound?
A: The TGI was 67.7 µM.

Q: What about the TGI [8] of the same compound?
A: The TGI was 21.1 µM.

Q: What about the TGI [9] of the same compound?
A: The TGI was 69 µM.

Q: What about the TGI [10] of the same compound?
A: Its TGI is 41.1 µM.

Q: What about the TGI [11] of the same compound?
A: Its TGI is 30.7 µM.

Q: And the TGI [12]?
A: Its TGI is 50.9 µM.

Q: How did the TGI [1] turn out when `COC(=O)/C=C1/OC(c2ccccc2)=C(Cl)C1=O` was run?
A: The TGI was 19.9 µM.

Q: And the TGI [2]?
A: Its TGI is 45.6 µM.

Q: And the TGI [3]?
A: Its TGI is 26.3 µM.

Q: And the TGI [4]?
A: The TGI was 48.7 µM.

Q: And the TGI [5]?
A: Its TGI is 33.8 µM.

Q: What about the TGI [6] of the same compound?
A: The TGI was 18.1 µM.

Q: And the TGI [7]?
A: Its TGI is 39.4 µM.

Q: What about the TGI [8] of the same compound?
A: Its TGI is 35.9 µM.

Q: And the TGI [9]?
A: Its TGI is > 76.2 µM.

Q: And the TGI [10]?
A: The TGI was 66 µM.

Q: And the TGI [11]?
A: The TGI was 68.2 µM.

Q: What about the TGI [12] of the same compound?
A: Its TGI is 17.9 µM.

Q: Which results are given for `CC(=O)C(=C(I)I)c1ccccc1`?
A: TGI [1]: 31.7 µM; TGI [2]: 41.4 µM; TGI [3]: 29.4 µM; TGI [4]: 39.6 µM; TGI [5]: 30.3 µM; TGI [6]: 43.2 µM; TGI [7]: 36.2 µM; TGI [8]: 46.4 µM; TGI [9]: 60.4 µM; TGI [10]: 32.7 µM; TGI [11]: 40.7 µM; TGI [12]: 35.5 µM

Q: `Cn1c(N/N=C/c2ccc(Cl)cc2)nc(-c2ccc(Cl)cc2)c(C#N)c1=O` was tested. Which TGI [1] did it give?
A: Its TGI is > 100 µM.

Q: What about the TGI [2] of the same compound?
A: The TGI was 57.6 µM.

Q: And the TGI [3]?
A: Its TGI is 26.3 µM.

Q: And the TGI [4]?
A: The TGI was 44.6 µM.

Q: What about the TGI [5] of the same compound?
A: The TGI was 32.7 µM.

Q: What about the TGI [6] of the same compound?
A: Its TGI is > 100 µM.

Q: What about the TGI [7] of the same compound?
A: Its TGI is 38.6 µM.

Q: What about the TGI [8] of the same compound?
A: The TGI was 57.8 µM.

Q: And the TGI [9]?
A: The TGI was 46.1 µM.

Q: What about the TGI [10] of the same compound?
A: Its TGI is > 100 µM.

Q: And the TGI [11]?
A: The TGI was 93.5 µM.

Q: What about the TGI [12] of the same compound?
A: The TGI was > 100 µM.

Q: For `C=C(Br)CN(C#N)CC(=C)Br`, which TGI [1] is on record?
A: Its TGI is > 100 µM.

Q: What about the TGI [2] of the same compound?
A: The TGI was > 100 µM.

Q: And the TGI [3]?
A: Its TGI is > 100 µM.

Q: And the TGI [4]?
A: The TGI was > 100 µM.

Q: And the TGI [5]?
A: The TGI was > 100 µM.

Q: What about the TGI [6] of the same compound?
A: Its TGI is > 100 µM.

Q: What about the TGI [7] of the same compound?
A: Its TGI is > 100 µM.

Q: And the TGI [8]?
A: Its TGI is > 100 µM.

Q: What about the TGI [9] of the same compound?
A: Its TGI is > 100 µM.

Q: What about the TGI [10] of the same compound?
A: The TGI was > 100 µM.

Q: What about the TGI [11] of the same compound?
A: The TGI was > 100 µM.

Q: And the TGI [12]?
A: Its TGI is > 100 µM.

Q: For `O=C(CCCC(=O)N1CC(CCl)c2ccc([N+](=O)[O-])cc21)N1CC(CCl)c2ccc([N+](=O)[O-])cc21` (centres undefined), which TGI [1] is on record?
A: The TGI was > 100 µM.

Q: And the TGI [3]?
A: Its TGI is > 100 µM.

Q: What about the TGI [5] of the same compound?
A: The TGI was > 100 µM.

Q: And the TGI [6]?
A: Its TGI is > 100 µM.

Q: What about the TGI [7] of the same compound?
A: Its TGI is > 100 µM.

Q: And the TGI [8]?
A: Its TGI is > 100 µM.

Q: What about the TGI [9] of the same compound?
A: The TGI was > 100 µM.

Q: And the TGI [10]?
A: Its TGI is > 100 µM.

Q: What about the TGI [11] of the same compound?
A: Its TGI is > 100 µM.

Q: And the TGI [12]?
A: Its TGI is 60.5 µM.

Q: What does the source list for `COc1cccc(/C=C/C2=NN(c3cccc(S(=O)(=O)O)c3)C3(C2)SCC(=O)N3c2nc3ccccc3s2)c1` (centres undefined)?
A: TGI [1]: 88.3 µM; TGI [2]: > 100 µM; TGI [3]: > 100 µM; TGI [4]: > 100 µM; TGI [6]: 81.3 µM; TGI [7]: > 100 µM; TGI [8]: > 100 µM; TGI [9]: 93.1 µM; TGI [10]: > 100 µM; TGI [11]: > 100 µM; TGI [12]: 62.9 µM

Q: What does the source list for `CN(C)c1ccc(C(c2ccc(N(C)C)cc2)c2ccc([N+](=O)[O-])cc2)cc1`?
A: TGI [1]: > 100 µM; TGI [2]: > 100 µM; TGI [3]: > 100 µM; TGI [4]: > 100 µM; TGI [5]: > 100 µM; TGI [6]: > 100 µM; TGI [7]: > 100 µM; TGI [8]: > 100 µM; TGI [9]: > 100 µM; TGI [10]: > 100 µM; TGI [11]: > 100 µM; TGI [12]: > 100 µM

Q: Which results are given for `NS(=O)(=O)c1ccc(/C=C/c2cccc(O)c2)cc1`?
A: GI50 [1]: 16.1 µM; TGI [1]: > 100 µM; GI50 [2]: 35.4 µM; TGI [2]: > 100 µM; TGI [3]: > 100 µM; GI50 [4]: 25.2 µM; TGI [4]: 58.7 µM; TGI [5]: 80.4 µM; GI50 [6]: 20 µM; TGI [6]: > 100 µM; GI50 [7]: 46.1 µM; TGI [7]: > 100 µM; TGI [8]: > 100 µM; TGI [9]: > 100 µM; TGI [10]: > 100 µM; TGI [11]: > 100 µM; GI50 [12]: 17.8 µM; TGI [12]: > 100 µM

Q: How did the TGI [1] turn out when `CN(C)Cc1cc(C(=O)/C=C/c2ccc(/C=C/C(=O)c3cc(CN(C)C)c(O)c(CN(C)C)c3)cc2)cc(CN(C)C)c1O` was run?
A: Its TGI is > 100 µM.

Q: What about the TGI [2] of the same compound?
A: The TGI was 56.3 µM.

Q: What about the TGI [3] of the same compound?
A: The TGI was 34 µM.

Q: What about the TGI [4] of the same compound?
A: Its TGI is > 100 µM.

Q: What about the TGI [5] of the same compound?
A: The TGI was > 100 µM.

Q: What about the TGI [6] of the same compound?
A: The TGI was 68.6 µM.

Q: And the TGI [7]?
A: Its TGI is 55.7 µM.

Q: And the TGI [8]?
A: The TGI was > 100 µM.

Q: What about the TGI [9] of the same compound?
A: Its TGI is > 100 µM.

Q: What about the TGI [10] of the same compound?
A: Its TGI is > 100 µM.

Q: What about the TGI [11] of the same compound?
A: The TGI was > 100 µM.

Q: And the TGI [12]?
A: Its TGI is > 100 µM.

Q: Which TGI [1] does the source give for `NC1CCC(c2cc3ccccc3s2)(N2CCCCC2)CC1` (centres undefined) here?
A: The TGI was 2.45 µM.

Q: What about the TGI [2] of the same compound?
A: The TGI was 3.78 µM.

Q: And the TGI [3]?
A: The TGI was 3.05 µM.

Q: What about the TGI [4] of the same compound?
A: Its TGI is 3.67 µM.

Q: What about the TGI [5] of the same compound?
A: Its TGI is 2.81 µM.

Q: What about the TGI [6] of the same compound?
A: The TGI was 3.25 µM.

Q: And the TGI [7]?
A: The TGI was 3.23 µM.

Q: What about the TGI [8] of the same compound?
A: The TGI was 21.2 µM.

Q: And the TGI [9]?
A: The TGI was 16.4 µM.

Q: What about the TGI [10] of the same compound?
A: The TGI was 3.44 µM.

Q: And the TGI [11]?
A: Its TGI is 22.9 µM.

Q: What about the TGI [12] of the same compound?
A: The TGI was 3.38 µM.

Q: Which results are given for `COc1ccc2c(c1)CC[C@@H]1[C@@H]2CC[C@]2(C)/C(=N/OCCN3CCCCC3)CC[C@@H]12`?
A: TGI [1]: 10.4 µM; TGI [2]: 13.2 µM; TGI [3]: 5.67 µM; TGI [4]: 23.1 µM; TGI [5]: 15 µM; TGI [6]: 8.37 µM; TGI [7]: 25 µM; TGI [8]: 8.17 µM; TGI [9]: 14.7 µM; TGI [10]: 5.34 µM; TGI [11]: 23 µM; TGI [12]: 6.29 µM

Q: With `COc1ccc(CNc2nc3ccccc3nc2-c2cccs2)cc1` as the compound, how does the TGI [1] read?
A: The TGI was > 100 µM.

Q: And the TGI [2]?
A: Its TGI is > 100 µM.

Q: What about the TGI [3] of the same compound?
A: The TGI was > 100 µM.

Q: What about the TGI [4] of the same compound?
A: Its TGI is > 100 µM.

Q: What about the TGI [5] of the same compound?
A: Its TGI is > 100 µM.

Q: And the TGI [6]?
A: The TGI was 45.4 µM.

Q: What about the TGI [7] of the same compound?
A: The TGI was > 100 µM.

Q: What about the TGI [8] of the same compound?
A: Its TGI is > 100 µM.

Q: And the TGI [9]?
A: Its TGI is > 100 µM.

Q: And the TGI [10]?
A: The TGI was > 100 µM.

Q: What about the TGI [11] of the same compound?
A: Its TGI is > 100 µM.

Q: What about the TGI [12] of the same compound?
A: The TGI was > 100 µM.

Source: PubChem BioAssay (NCI)
